Literature values, collected in US20050064023A1, “Compound” (priority 2001, published 2005).

Settings: in combination with DOPE

Q: Which “enhancement compared to the non-disulfide analogs” value does the source give for “1,2-dioleyl-sn-glycero-3-succinyl-2-hydroxyethyl-disulfide omithine [DOGSDSO]” here?
A: up to 50 times

Q: What does the source list for `CC(C)CCC[C@@H](C)[C@H]1CC[C@H]2[C@@H]3CC=C4C[C@@H](OC(=O)CSSCC(=O)NCCN(CCN)CCN)CC[C@]4(C)[C@H]3CC[C@]12C` [CHDTAEA, cholesteryl-hemi-dithio-diglycolyl-tris(aminoethyl)-amine]?
A: cellular toxicity compared to DC-Chol liposomes: decrease of cellular toxicity; transfection efficiency compared to DC-Chol liposomes: increase of transfection efficiency
